Results: US20260115250A1, “METHODS OF TREATING AGE-RELATED MACULAR DEGENERATION” (Character Biosciences, Inc., priority 2022, published 2026)
Peptide text beside a SMILES is read from it.

Legend:
ARPE-19 cells [1] = assay: ARPE-19 cholesterol import (BODIPY-Cholesterol); assay type: cell-based, human; details: ARPE-19, 0.37-30 μM peptide, FIG. 15
Description: (§1) FIG. 12 and FIGS. 14A-14B illustrate the results of ARPE-19 cholesterol import testing. ARPE-19 cells were seeded on 96-well plates at 25,000 cells per well and grown to confluence. A 2× solution of 500 μM DMPC and 50 μM BODIPY-Cholesterol were prepared in serum free DMEM: F12. Peptides were diluted to 20 μM in serum free DMEM: F12 (a 2× solution). Peptides were added to lipid solution in equal parts (60 μL each) and were incubated for 1 hour at 37° C. ARPE-19 cells were serum starved in serum free DMEM: F12 for 1 hour at 37° C. Peptide: Lipid complexes (100 μL total volume per well) were transferred to ARPE-19 cells for 2 hours at 37° C. Cells were washed, fixed, and intracellular fluorescence was read on Promega GloMax at 475 nm excitation, 500-550 emission. Fluorescence values were background corrected from no treatment conditions. Data are presented as mean+SD for two runs.
FIG. 15 illustrates ARPE-19 cholesterol import titration curves for a subset of the peptides. ARPE-19 cells were seeded on 96-well plates at 25,000 cells per well and grown to confluence. A 2× solution of 500 μM DMPC and 50 μM BODIPY-Cholesterol was prepared in serum free DMEM: F12. Peptides were diluted to 0.74-60 μM in serum free DMEM: F12 (2× solutions). Peptides were added to lipid solution in equal parts (60 μL each) to create final peptide concentrations of 0.37-30 µM and incubated for 1 hour at 37° C. ARPE-19 cells were serum starved in serum free DMEM: F12 for 1 hour at 37° C. Peptide: Lipid complexes (100 μL total volume per well) were transferred to ARPE-19 cells for 2 hours at 37° C. Cells were washed, fixed, and intracellular fluorescence was read on Promega GloMax at 475 nm excitation, 500-550 emission. Fluorescence values were background corrected from no treatment conditions. […]
ARPE-19 cells were seeded on 96-well plates at 25,000 cells per well and grown to confluence. […] Cells were washed, fixed, and intracellular fluorescence was read on Promega GloMax at 475 nm excitation, 500-550 emission. Fluorescence values were background corrected from no treatment conditions. […]

ARPE-19 cells [2] = assay: ARPE-19 GAG-dependent cholesterol import (with or without heparin); assay type: cell-based, human; details: ARPE-19, 10 μM peptide
Description: as §1, with “ARPE-19” for “FIG. 12 and FIGS. 14A-14B illustrate the results of ARPE-19 cholesterol import testing. ARPE-19”, “BODIPY-Cholesterol with or without 100 µg/mL heparin was” for “BODIPY-Cholesterol were”, “and” for “and were”, “presented ±SD” for “presented as mean+SD”, “for 2” for “for two”

HepG2 cells [3] = assay: HepG2 GAG dependent cholesterol import (with or without heparin); assay type: cell-based; details: HepG2, 10 μM peptide, with or without 100 μg/mL heparin
Description: HepG2 cells were seeded on 96-well plates at 10,000 cells per well and grown to confluence. A 2× solution of 500 μM DMPC and 50 μM BODIPY-Cholesterol with or without 100 μg/mL heparin was prepared in serum free EMEM. Peptides were diluted to 20 μM in serum-free EMEM (a 2× solution). Peptides were added to lipid solution in equal parts (60 μL each) and incubated for 1 hour at 37° C. HepG2 cells were serum starved in serum-free EMEM for 1 hour at 37° C. Peptide: Lipid complexes (100 μL total volume per well) were transferred to HepG2 cells for 2 hours at 37° C. Cells were washed, fixed, and intracellular fluorescence was read on Promega GloMax at 475 nm excitation, 500-550 emission. Fluorescence values were background corrected from no treatment conditions. Data are presented ±SD for 2 runs.

HepG2 cells [4] = assay: HepG2 cholesterol import (BODIPY-Cholesterol); assay type: cell-based; details: HepG2, peptide:lipid complexes from 30 μM diluted 1:3
Description: HepG2 cells were seeded on a 96-well plate at 10,000 cells per well and grown to confluence. A solution of 500 μM DMPC and 50 μM BODIPY-Cholesterol was prepared in serum free EMEM. Peptides were diluted to 20 μM in serum free EMEM (a 2× solution). Peptides were added to lipid solution in equal parts (60 μL each) to create final 1× concentration and incubated for 1 hour at 37° C. HepG2 cells were serum starved in serum-free EMEM for 1 hour at 37° C. Peptide: Lipid complexes (100 μL total volume per well) were transferred to HepG2 cells for 2 hours at 37° C. Cells were washed, fixed, and intracellular fluorescence was read on Promega GloMax at 475 nm excitation, 500-550 emission. Fluorescence values were background corrected from no treatment conditions. Data are presented as mean+SD for two runs.
HepG2 cells were seeded on 96-well plates at 10,000 cells per well and grown to confluence. Peptide: Lipid complexes were created by preparing a solution of serum-free EMEM containing 30 μM peptide, 750 μM DMPC, and 75 μM BODIPY-Cholesterol. Peptide: Lipid complexes were serially diluted 1:3 for 5 concentrations, and incubated for 1 hour at 37° C. […] Cells were washed, fixed, and intracellular fluorescence was read on Promega GloMax at 475 nm excitation, 500-550 emission. Fluorescence values were background corrected from no treatment conditions. […]

[5] = DMPC solubility assay, 0.5 mM DMPC (turbidity reduction); assay type: biochemical
Outline: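 Peptides (100 μM final, or 3.16-100 μM for titrations) incubated with 0.5 mM DMPC in water for 15 minutes at room temperature. Turbidity read as absorbance at 405 nm; EC50 from non-linear regression, mean+SD over two runs.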

ARPE-19 cells [6] = assay: ARPE-19 cell lysis (Sytox Green); assay type: cell-based, human; details: 3.16-100 μM peptide, 2 h
Description: These figures illustrate ARPE-19 cell lysis. ARPE-19 cells were grown in 96-well plates to 75-85% confluence. Peptides at 10 mM were diluted in serum-free DMEM:F12 media into a 20 μM working solution (a 2× solution). Sytox Green was prepared in serum-free DMEM:F12 at a 1 μM working solution (a 2× solution). Equivalent volumes of the peptide and Sytox Green solutions were added to empty 96-well plates and mixed gently. Final peptide concentration was 10 μM. ARPE-19 cells (˜80% confluent in 96-well plates) were washed with DPBS and then incubated in 100 μL of peptide/Sytox Green mixture for 2 h at 37° C. Cells were fixed in 4% paraformaldehyde solution in DPBS and then incubated in 10 μM Hoechst solution for 10 min, washed, and imaged on a Yokogawa CQ1 high-content imager. CellPathfinder software was used to count live/dead cells in 4 fields of view at 20× magnification. Percent (%) lysis was calculated by dividing the number of Sytox Green+ nuclei by the total number of Hoechst+ nuclei.
ARPE-19 cells were grown in 96-well plates to 75-85% confluence. Peptides at 10 mM were diluted in serum-free DMEM: F12 media to solutions between […]. Sytox Green was prepared in serum-free DMEM: F12 media at a 1 μM working solution. Equivalent volumes of the peptide and Sytox Green solutions were added to empty 96-well plates and mixed gently. Final peptide concentration was 3.16-100 μM. ARPE-19 cells (˜80% confluent in 96-well plates) were washed with DPBS and then incubated in 100 μL of peptide/Sytox Green mixture for 2 h at 37° C. Cells were fixed in 4% paraformaldehyde solution in DPBS and then incubated in 10 μM Hoechst solution for 10 min, washed, and imaged on a Yokogawa CQ1 high-content imager. CellPathfinder software was used to count live/dead cells in 4 fields of view at 20× magnification. Percent (%) lysis was calculated by dividing the number of Sytox Green+ nuclei by the total number of Hoechst+ nuclei. Non-linear regression was used to calculate EC50 values.

LDLR = LDLR (Homo sapiens, UniProt P01130); assay: KD (µM)
Source text: Table printed on a drawing sheet, FIG. 23
Title: Buffer: HBS + 0.05% P20
Head of the field: KD (µM)
The patent's description of the figure: FIG. 23 is a table showing the binding kinetics results of LDLR binding assays (SPR), high surfactant preparation as described herein for select peptides shown in FIG. 1A-1I.
First copying reader's note: Middle of three side-by-side panels of FIG. 23; the KD cells hold value ± error together.
Where the first naming reader finds the target: description_of_the_figure: FIG. 23 is a table showing the binding kinetics results of LDLR binding assays (SPR)

LDLR, sequence (P01130 22-860 limits assumed): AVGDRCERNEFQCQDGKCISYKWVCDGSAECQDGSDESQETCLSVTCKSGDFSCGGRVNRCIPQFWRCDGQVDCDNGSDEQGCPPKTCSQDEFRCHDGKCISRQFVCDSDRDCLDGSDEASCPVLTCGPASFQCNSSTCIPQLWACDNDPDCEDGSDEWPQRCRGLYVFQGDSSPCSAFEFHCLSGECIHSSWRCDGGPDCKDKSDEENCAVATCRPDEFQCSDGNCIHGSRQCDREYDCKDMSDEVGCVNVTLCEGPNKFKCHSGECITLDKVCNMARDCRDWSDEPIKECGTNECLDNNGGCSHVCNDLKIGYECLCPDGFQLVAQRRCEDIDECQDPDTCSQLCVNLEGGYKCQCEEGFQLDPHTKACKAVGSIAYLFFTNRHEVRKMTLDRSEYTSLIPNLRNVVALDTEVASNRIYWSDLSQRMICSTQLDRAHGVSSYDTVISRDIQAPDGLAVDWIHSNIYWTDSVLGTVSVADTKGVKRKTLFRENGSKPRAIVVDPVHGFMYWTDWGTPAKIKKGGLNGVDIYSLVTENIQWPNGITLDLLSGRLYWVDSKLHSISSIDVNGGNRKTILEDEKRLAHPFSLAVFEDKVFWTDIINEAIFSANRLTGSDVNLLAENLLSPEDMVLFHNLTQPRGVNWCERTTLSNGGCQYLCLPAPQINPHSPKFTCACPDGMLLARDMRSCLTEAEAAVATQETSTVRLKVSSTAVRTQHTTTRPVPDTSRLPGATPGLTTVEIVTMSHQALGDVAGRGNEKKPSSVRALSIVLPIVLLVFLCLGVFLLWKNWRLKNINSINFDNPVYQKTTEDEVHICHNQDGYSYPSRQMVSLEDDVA

Structure (SMILES) | cholesterol import titration (ARPE-19 cells [1]) | GAG dependence of cholesterol import (ARPE-19 cells [2]) | GAG dependence of cholesterol import (HepG2 cells [3]) | cholesterol import titration (HepG2 cells [4]) | EC50 ([5]; 3.16-100 μM peptides, 15 minutes) | DMPC solubilizing activity ([5]; FIGS. 2A-2D and 3A-3C) | EC50 (ARPE-19 cells [6]) | Kd (LDLR)
CSCC[C@H](NC(=O)[C@H](CC(C)C)NC(=O)[C@H](CC(=O)O)NC(=O)[C@H](CCCCN)NC(=O)CNC(=O)[C@H](Cc1ccc(O)cc1)NC(=O)[C@H](CC(=O)O)NC(=O)[C@@H](NC(=O)[C@@H](NC(=O)[C@@H](NC(=O)[C@H](CCC(N)=O)NC(=O)[C@H](Cc1ccccc1)NC(=O)[C@H](Cc1ccc(O)cc1)NC(=O)[C@H](CCC(N)=O)NC(=O)[C@H](CO)NC(=O)[C@@H](NC(=O)[C@H](CC(C)C)NC(=O)[C@H](CO)NC(=O)[C@H](CCCNC(=N)N)NC(=O)[C@H](CC(C)C)NC(=O)[C@H](CC(C)C)NC(=O)[C@H](CCCNC(=N)N)NC(=O)[C@H](CCCCN)NC(=O)[C@H](CCCNC(=N)N)NC(=O)[C@H](CC(C)C)NC(=O)[C@H](CCCCN)NC(=O)[C@H](CCCNC(=N)N)NC(=O)[C@H](CC(C)C)NC(=O)[C@@H](N)Cc1c[nH]cn1)C(C)C)[C@@H](C)O)C(C)C)[C@@H](C)O)C(=O)O [T-027] (H-HLRKLRKRLLRSLVSQYFQTVTDYGKDLM-OH; N-terminus and C-terminus assumed) | concentration-dependent increase in cholesterol import | rely on GAG binding for cholesterol import activity | rely on GAG binding for cholesterol import activity | concentration-dependent cholesterol import activity | 56.6 µM | significant activity | 40.1 µM | –
CC(C)C[C@H](NC(=O)[C@H](CCCNC(=N)N)NC(=O)[C@H](CC(=O)O)NC(=O)[C@H](CCC(N)=O)NC(=O)[C@H](CC(C)C)NC(=O)[C@H](CCCCN)NC(=O)[C@H](CC(=O)O)NC(=O)CNC(=O)[C@H](CC(=O)O)NC(=O)[C@H](CCCNC(=N)N)NC(=O)[C@H](Cc1ccccc1)NC(=O)[C@H](CC(C)C)NC(=O)[C@H](CCCNC(=N)N)NC(=O)[C@H](CCCCN)NC(=O)[C@H](CCCNC(=N)N)NC(=O)[C@H](CC(C)C)NC(=O)[C@H](CCCCN)NC(=O)[C@H](CCCNC(=N)N)NC(=O)[C@H](CC(C)C)NC(=O)[C@@H](N)Cc1c[nH]cn1)C(=O)N[C@@H](C)C(=O)N[C@@H](CCC(=O)O)C(=O)N[C@@H](Cc1ccc(O)cc1)C(=O)N[C@@H](CCC(N)=O)C(=O)N[C@@H](C)C(=O)N[C@@H](CCCNC(=N)N)C(=O)N[C@@H](C)C(=O)N[C@@H](CCCCN)C(=O)N[C@@H](CCC(=O)O)C(=O)N[C@@H](C)C(=O)N[C@@H](Cc1ccccc1)C(=O)N[C@@H](CC(=O)O)C(=O)N[C@@H](CCCNC(=N)N)C(=O)O [T-060] (H-HLRKLRKRLFRDGDKLQDRLAEYQARAKEAFDR-OH; N-terminus and C-terminus assumed) | – | – | – | – | – | – | – | 150 ± 41.7 µM
